In series [1] the test system is Radical scavenging activity. The series can be described thus: Antioxidant activity assessed as DPPH radical scavenging activity at 500 uM measured for 60 secs by spectrophotometric analysis. Format: functional.
Series [2] deals with Radical scavenging activity. The series can be described thus: Antioxidant activity assessed as DPPH radical scavenging rate constant measured for 60 secs by spectrophotometric analysis. Type of series: functional. A general note: The DPPH test is a chemical assay of radical scavenging.
A further series concerns HL-60. The series can be described thus: Cytotoxicity against human HL60 cells assessed as cell viability up to 120 uM after 24 hrs by trypan blue assay. Type of series: cell-based. To be noted: hl-60, 24 h.
The nature of series [3]: Solubility of the compound in PBS buffer at pH 7.4 at 37 degC. Type of series: physicochemical.
The nature of series [4]: Solubility of the compound in serum at pH 7.4. Type of series: ADME.

Each structure is given as a SMILES string. ≈ marks a conversion by molar mass, not a printed value. Calls of active or inactive are those of the source. The rule behind the calls is not given here.

Regarding `COc1ccc2[nH]c(=O)[nH]c2n1`, the result in series [1] was inactive. Still for that read-out and setting: the entry for `O=C1Cc2ccccc2C1` is “inactive”. Consider `O=C1Cc2ccc(O)cc2N1`, for which the Activity in series [2] is 0.93 ×10³ /M/s.

For `Oc1ccc2c(c1)CCC2`, the outcome in series [1] was inactive. Consider `O=C1Cc2ccccc2N1`, for which the result in series [1] was inactive. As for `Oc1cccc2c1CCN2`, the Activity in series [2] came to 0.21 ×10³ /M/s.

Regarding `O=c1[nH]c2ccc(O)nc2[nH]1`, the figures for the Activity result (in the series with HL-60; in series [2]) were “Non-toxic” and 71 ×10³ /M/s, respectively. Moreover, the solubility (in general, the concentration that dissolves in the medium under given conditions) in series [3] amounted to 82 µg/mL (≈ 543 µM). As to `O=c1[nH]c(=O)c2[nH]c(=O)[nH]c2[nH]1` [URIC ACID], the Activity entry with HL-60 is “Non-toxic”. The concentration in solution in series [3] (solubility) was 53 µg/mL (≈ 315 µM).

As for `Oc1ccc2[nH]ccc2c1`, the Activity in series [2] came to 2.6 ×10³ /M/s. As to `Oc1ccc2cc[nH]c2c1`, the Activity in series [2] stood at 11 ×10³ /M/s. On to `O=c1[nH]c2ccc(O)cc2[nH]1`, for which the Activity entry in the series on HL-60 was “Non-toxic”; in series [2], 110 ×10³ /M/s. In series [3], this molecule came in with a solubility of 65 µg/mL (≈ 433 µM). Molecule `[Na+].[O-]c1nc2c(O)nc(O)nc2[nH]1` yielded a solubility in series [4] of 70 µg/mL. Moreover, the Activity in series [2] was determined as 0.7 ×10³ /M/s. With `CC1=NN(c2ccccc2)C(=O)C1`, in series [2], the Activity worked out at 72 ×10³ /M/s.

For `COc1ccc2[nH]c(=O)[nH]c2c1`, the outcome in series [1] was inactive. `O=C1Cc2cc(O)ccc2N1`: the Activity entry is “Non-toxic” with HL-60 and 11 ×10³ /M/s in series [2]. The molecule also gave a solubility in series [3] of 225 µg/mL (≈ 1510 µM). In the case of `Oc1ccc(O)cc1` [HYDROQUINONE], the Activity result in the series with HL-60 was “Toxic”; in series [2] it was 4.4 ×10³ /M/s. With `c1ccc2[nH]cnc2c1`, the outcome in series [1] was inactive. On to `O=c1[nH]c2ccc(O)cc2o1`, for which, in series [2], the Activity was found to be 8.7 ×10³ /M/s. As for `O=c1[nH]c2cccc(O)c2[nH]1`, the Activity in series [2] came to 0.37 ×10³ /M/s.

Consider `Nc1ccc(O)cc1` [4-AMINOPHENOL], for which the Activity entry in the series on HL-60 was “Toxic”; in series [2] it was 310 ×10³ /M/s. Turning to `O=C1Cc2cccc(O)c2N1`, the Activity in series [2] amounted to 0.12 ×10³ /M/s.

Consider `O=c1[nH]c2ccccc2[nH]1`, for which the outcome in series [1] was inactive.

The record behind these values is ChEMBL document CHEMBL3217718, “Synthesis, radical scavenging activity and structureactivity relationship of uric acid analogs” (Medchemcomm, 2013).
